# Measured values taken from ChEMBL document CHEMBL1131290, “Studies of structure-activity relationship of nitroxide free radicals and their precursors as modifiers against oxidative damage” (1998).
# Tests used:
# [1] = Mean surviving fraction of V79 cells following a 12-Gy dose of radiation.; type: functional, Cricetulus griseus
# [2] = Mean surviving fraction of V79 cells following a 1-h exposure to H2O2.; type: functional, Cricetulus griseus
# V79 [3] = settings: Cricetulus griseus
# V79 [4] = settings: Cricetulus griseus; remark: listed apart in the source
# [5] = Compound was evaluated for mean surviving fraction of Chinese hamster V79 cells following a 12-Gy dose of radiation.; type: functional, Cricetulus griseus
# [6] = Compound was evaluated for mean surviving fraction of Chinese hamster V79 cells following a 1-h exposure to H2O2.; type: functional, Cricetulus griseus
SMILES,Radiation prot [1],H2O2 prot [2],further results
CC1(C)C=C(C=O)CC(C)(C)N1,0.4,–,–
CC1(C)CC(N)CC(C)(C)N1O,1.1,1,–
CC1(C)C=C(CN2CCCC2)C(C)(C)N1[O],–,–,Radiation prot (V79 [3]): 21.4
CN(CC1=CC(C)(C)N([O])C1(C)C)Cc1ccccc1,–,–,H2O2 prot (V79 [4]): 2
CC1(C)C=C(CNC23CC4CC(CC(C4)C2)C3)C(C)(C)N1[O],–,–,H2O2 prot (V79 [4]): 3.3
CC1(C)CC(CN)C(C)(C)N1[O] (stereo unspecified),13.7,0.7,–
CC1(C)C=C(CO)C(C)(C)N1,1.5,0.9,–
CC1(C)CC(N)CC(C)(C)N1[O] [TEMPAMINE],18.5,2.8,–
CC(=O)C1=CC(C)(C)N(O)C1(C)C,0.15,2.7,–
CCOCC1=CC(C)(C)N([O])C1(C)C,–,–,H2O2 prot (V79 [4]): 1.3
CC1(C)C=C(C=O)C(C)(C)N1[O],–,–,H2O2 prot (V79 [4]): 1.3; Radiation prot (V79 [3]): 2.7
CC1(C)CC(NS(C)(=O)=O)CC(C)(C)N1O,0.77,–,–
CC1(C)C=C(CO)C(C)(C)N1O,0.92,3.1,–
CC1(C)C=C(CNC23CC4CC(CC(C4)C2)C3)C(C)(C)N1,1.4,1.9,–
CC1(C)C=C(CNCc2ccccc2)C(C)(C)N1[O],–,–,H2O2 prot (V79 [4]): 2; Radiation prot (V79 [3]): 5.2
CC(C)(C)NCC1=CC(C)(C)N([O])C1(C)C,–,–,H2O2 prot (V79 [4]): 2; Radiation prot (V79 [3]): 19.3
CC1(C)CC(=O)CC(C)(C)N1[O],7.1,1.1,–
CC1(C)CCC=[N+]1[O-],0.93,0.9,–
CC(=O)NC1CC(C)(C)N(O)C(C)(C)C1,0.85,1.8,–
CCOC1CC(C)(C)N([O])C(C)(C)C1,–,–,H2O2 prot (V79 [4]): 1.9
CC1(C)C=C(C(=O)NCCCN2C(=O)c3ccccc3C2=O)C(C)(C)N1,1.9,1.1,–
CC1(C)CC(C(=O)NCCCN2C(=O)c3ccccc3C2=O)C(C)(C)N1O (stereo unspecified),1.26,–,–
CN(C)CC1=CC(C)(C)NC1(C)C,0.95,–,–

SMILES,Radiation prot [1],H2O2 prot [2],further results
CN(C)CCCNC(=O)C1=CC(C)(C)N([O])C1(C)C,–,–,Radiation prot (V79 [3]): 15
CC1(C)C=C(C=O)CC(C)(C)N1O,1.5,–,–
CC1(C)CC(=O)CC(C)(C)N1O,0.68,–,–
CC1(C)CC(C(N)=O)C(C)(C)N1[O] (stereo unspecified),11.2,1.7,–
CCOC1CC(C)(C)N(O)C(C)(C)C1,–,1.6,–
CC1(C)C=C(C=O)CC(C)(C)N1[O],–,–,H2O2 prot (V79 [4]): 0.8; Radiation prot (V79 [3]): 6.1
CC1(C)C=C(CN2CCCC2)C(C)(C)N1O,28.3,–,–
CC1(C)C=C(CNC23CC4CC(CC(C4)C2)C3)C(C)(C)N1O,1.8,2.5,–
CCCC[N+](CCCC)(CCCC)CC1=CC(C)(C)N([O])C1(C)C,–,–,H2O2 prot (V79 [4]): 1.1; Radiation prot (V79 [3]): 0.69
CC1(C)CCC(C)(C)N1[O],4.6,0.9,–
CC1(C)CC(O)C(C)(C)N1[O] (stereo unspecified),–,–,H2O2 prot (V79 [4]): 1.4; Radiation prot (V79 [3]): 2.9
CC1(C)C=C(CNC23CC4CC(CC(C4)C2)C3)CC(C)(C)N1O,–,2.1,–
CC1(C)C=C(CC[Se]C(=N)N)C(C)(C)[NH+]1[O-] (stereo unspecified),–,1.3,–
CC1(C)C=C(NC(N)=O)C(C)(C)N1[O],–,–,H2O2 prot (V79 [4]): 1.2
CCCCNCC1=CC(C)(C)N([O])C1(C)C,–,–,H2O2 prot (V79 [4]): 2.5; Radiation prot (V79 [3]): 3.96
CC1(C)C=C(CCNC(=N)N)C(C)(C)N1[O],–,–,Radiation prot (V79 [3]): 1
CC1(C)CCC(C)(C)N1O,–,–,Radiation prot [5]: 0.7; H2O2 prot [6]: 2.3
CC1(C)C=C(C(=O)NCCCN2C(=O)c3ccccc3C2=O)C(C)(C)N1O,1.3,2.2,–
CC1=[N+]([O-])C(C)(C)CC1,1.1,0.8,–
CC1(C)C=C(CN2CCCCC2)C(C)(C)N1[O],–,–,Radiation prot (V79 [3]): 19.1
CC1(C)C=C(CN2CCCCC2)C(C)(C)N1O,30,–,–
CC1(C)C=C(C(=O)O)C(C)(C)N1[O],–,1,–
CC1(C)CC(NC2CC(C)(C)N(O)C(C)(C)C2)CC(C)(C)N1O.Cl,1.4,1.9,–
